The values that follow are results of earlier work, collected in patent publication US20040167145A1, “Active ingredient combination for the pharmacological therapy of nicotine dependence” (priority 2001, published 2004).

For this data set the following is noted: clinical studies; compared with 8% for placebo.

Structures are written as SMILES.

`CC(NC(C)(C)C)C(=O)c1cccc(Cl)c1` (stereo not shown) [bupropion]: the 1-year abstinence rate is reported as 28%.
